Reference: ChEMBL document CHEMBL1201862, “PubChem BioAssay data set” (2004)
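All cell lines were grown in 96-well plates and treated with compound for 48 hours. At the GI50, growth is halved.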 The source made the active and inactive calls. Cut-off read from the data, not from the text of the source: active = GI50 up to about 1.1 µM and inactive = higher.

Key:
Assay in all cases: DTP human tumour cell line panel, 48 h
[1] = tested on: OVCAR-4
[2] = tested on: OVCAR-5
[3] = tested on: Malme-3M
[4] = tested on: UACC-257
[5] = tested on: T47D
[6] = tested on: UO-31
[7] = tested on: OVCAR-8
[8] = tested on: HL-60
[9] = tested on: EKVX
[10] = tested on: NCI-H226
[11] = tested on: SF-539
[12] = tested on: IGROV-1
[13] = tested on: KM12
[14] = tested on: NCI-H522
[15] = tested on: A498
[16] = tested on: MDA-MB-435
[17] = tested on: K562
[18] = tested on: MDA-N
[19] = tested on: MOLT-4
[20] = tested on: DU-145

Measured: GI50

O=[N+]([O-])c1ccc(Cl)cc1/C=N/C12CC3CC(CC(C3)C1)C2
inactive: [1] 63.5 µM | [2] > 100 µM | [3] 43.6 µM | [4] > 31.6 µM | [5] 37.4 µM | [6] 76.7 µM | [7] 43.1 µM | [8] 5.77 µM | [9] > 100 µM | [10] 61.5 µM | [11] 31.7 µM | [12] 55.7 µM | [13] 29 µM | [14] > 100 µM | [15] > 100 µM | [16] 47.6 µM | [17] 4.98 µM | [18] 52.5 µM | [19] 18.5 µM | [20] > 100 µM
